Converted amounts (≈) assume the structure as drawn.
tested on: Mycobacterium tuberculosis variant bovis; assay: Antimicrobial activity against Mycobacterium bovis; assay type: functional

SMILES | MIC
O=C(N[C@@H]1COc2nc([N+](=O)[O-])cn2C1)c1ccc(OC(F)(F)F)cc1 | 1.34 µM (≈ 0.499 µg/mL)
O=C(N[C@@H]1COc2nc([N+](=O)[O-])cn2C1)OCc1ccc(OC(F)(F)F)cc1 | 0.037 µM (≈ 0.0149 µg/mL)
O=C(Nc1ccc(OC(F)(F)F)cc1)N[C@@H]1COc2nc([N+](=O)[O-])cn2C1 | 0.039 µM (≈ 0.0151 µg/mL)
O=C(Nc1ccc(OC(F)(F)F)cc1)O[C@@H]1COc2nc([N+](=O)[O-])cn2C1 | 0.039 µM (≈ 0.0151 µg/mL)
O=C(NCc1ccc(OC(F)(F)F)cc1)O[C@@H]1COc2nc([N+](=O)[O-])cn2C1 | 0.075 µM (≈ 0.0302 µg/mL)
O=[N+]([O-])c1cn2c(n1)OC[C@@H](OCc1ccc(OC(F)(F)F)cc1)C2 [PRETOMANID] | 0.167 µM (≈ 0.06 µg/mL)

Reference: ChEMBL document CHEMBL1944507, “Structure-activity relationships for amide-, carbamate-, and urea-linked analogues of the tuberculosis drug (6S)-2-nitro-6-{[4-(trifluoromethoxy)benzyl]oxy}-6,7-dihydro-5H-imidazo[2,1-b][1,3]oxazine (PA-824)” (J Med Chem, 2012)
